Our source for the IC50 values is BindingDB's records for doi:10.1016/j.ejmech.2019.02.074 (University of Hull, 2019).

For orientation: IC50 means the concentration at which inhibition is half-maximal.

Molecules are shown by their SMILES. Where “and” joins values, the source holds several entries; their conditions need not be identical. Equal entries are not always repeated.

The target of this experiment is Transient receptor potential cation channel subfamily A member 1 (Homo sapiens, UniProt O75762). Briefly: Antagonist activity at human TRPA1 expressed in HEK293 cells assessed as inhibition of CA-induced increase in calcium influx incubated for 10 mins prior to CA addition by Fluo-4-AM dye based fluorescence assayy.
Chain of Transient receptor potential cation channel subfamily A member 1 (O75762 whole entry): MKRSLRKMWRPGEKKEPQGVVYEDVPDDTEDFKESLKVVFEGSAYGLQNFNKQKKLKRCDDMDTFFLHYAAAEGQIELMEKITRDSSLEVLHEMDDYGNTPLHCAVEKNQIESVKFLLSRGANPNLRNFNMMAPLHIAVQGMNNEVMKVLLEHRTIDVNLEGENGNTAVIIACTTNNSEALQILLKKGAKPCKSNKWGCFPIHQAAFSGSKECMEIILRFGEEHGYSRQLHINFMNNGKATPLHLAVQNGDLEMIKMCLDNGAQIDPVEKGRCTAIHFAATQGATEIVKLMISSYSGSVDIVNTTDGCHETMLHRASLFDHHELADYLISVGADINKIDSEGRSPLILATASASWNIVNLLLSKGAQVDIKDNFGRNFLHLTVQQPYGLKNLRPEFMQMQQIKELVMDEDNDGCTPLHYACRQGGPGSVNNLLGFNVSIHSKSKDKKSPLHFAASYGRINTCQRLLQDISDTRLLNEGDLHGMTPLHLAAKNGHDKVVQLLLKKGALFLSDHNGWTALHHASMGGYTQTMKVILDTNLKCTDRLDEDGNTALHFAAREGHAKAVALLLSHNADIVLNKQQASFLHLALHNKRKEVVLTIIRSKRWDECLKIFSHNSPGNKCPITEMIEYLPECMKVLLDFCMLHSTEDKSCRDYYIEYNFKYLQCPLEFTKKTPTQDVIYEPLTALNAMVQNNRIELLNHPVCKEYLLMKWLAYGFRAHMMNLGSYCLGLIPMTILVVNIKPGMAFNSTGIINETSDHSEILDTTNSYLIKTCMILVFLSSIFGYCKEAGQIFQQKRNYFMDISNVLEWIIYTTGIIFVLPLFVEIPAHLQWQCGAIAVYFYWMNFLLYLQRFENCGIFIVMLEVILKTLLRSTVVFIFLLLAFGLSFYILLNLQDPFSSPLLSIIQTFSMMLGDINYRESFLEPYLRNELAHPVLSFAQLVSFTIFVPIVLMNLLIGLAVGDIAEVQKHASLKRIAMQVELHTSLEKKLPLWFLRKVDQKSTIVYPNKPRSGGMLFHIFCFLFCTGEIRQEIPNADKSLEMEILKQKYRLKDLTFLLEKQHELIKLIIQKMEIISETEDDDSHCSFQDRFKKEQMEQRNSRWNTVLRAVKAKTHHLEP

In the case of `O=C(/C=C/c1ccc(Br)cc1)Nc1ccccc1C(=O)O`, the IC50 is 10 µM.
For the molecule `CC(=Cc1ccc(Cl)cc1)C(C)N=O` (configuration not stated) [4-(4-chlorophenyl)-3-methylbut-3-en-2-one oxime], the IC50 was 4.47 µM and 4.46 µM.
